Results taken from ChEMBL document CHEMBL1201862, “PubChem BioAssay data set” (2004).
Calls of active or inactive are those of the source.

What was measured:
[1] = tested on: HEK293; test: NOD1 signaling inhibitors, primary screen, cell-based, luminescence, uHTS (AID 1578); assay type: functional; settings: Homo sapiens
[2] = tested on: HEK293; test: cells; assay type: functional, cell-based; settings: Homo sapiens
[3] = tested on: HEK293; test: cells; assay type: functional, cell-based; settings: Homo sapiens; remark: listed apart in the source
[4] = tested on: HEK293; test: NOD2 signaling inhibitors in MDP-stimulated cells, cell-based, uHTS, luminescence (AID 2001); assay type: functional; settings: Homo sapiens
[5] = inhibitors of intracellular T. cruzi replication, confirmation, NIH3T3 host cells, beta-gal luminescence (AID 2044); assay type: functional, cell-based;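 also: intracellular parasites grown in NIH/3T3 mouse fibroblasts as host cells; luminescent beta-galactosidase reporter signal from transgenic T. cruzi replicating inside host cells; inhibitors lower the luminescence signal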
[6] = tested on: HEK293; test: cells; assay type: functional, cell-based; settings: Homo sapiens; remark: listed apart in the source
[7] = cytotoxicity toward NIH3T3 fibroblasts, dose response, counter-screen, cell-based, ATP luminescence, mouse fibroblasts (AID 2010); assay type: functional;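 also: cells exposed to compound for about 90 hours before reading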
[8] = human group III sPLA2 inhibitors, dose response, biochemical, QFRET, IC50 (AID 743457);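 also: green fluorescence rise as the enzyme cleaves BODIPY PC-A2 in liposomes; potency for inhibition of the enzyme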
[9] = tested on: HEK293; test: cells; settings: Homo sapiens
[10] = HepG2 cell cytotoxicity, dose response, cytotoxicity control, ATP luminescence, cherry-pick, activator set 2 (AID 1053143); assay type: functional, cell-based
[11] = biological target: T1, Oxysterols receptor LXR-beta (Homo sapiens, UniProt P55055); assay type: functional, cell-based;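 also: agonist activity at LXR measured by a cell-based luminescence readout across a dose range, run as a counterscreen for daf-12 agonists; HEK293 cells with Gal4-LXR fusion and GAL4-driven luciferase reporter; potency for activation of Gal4-LXR reporter so compounds are agonists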
T1 sequence (P55055 whole entry): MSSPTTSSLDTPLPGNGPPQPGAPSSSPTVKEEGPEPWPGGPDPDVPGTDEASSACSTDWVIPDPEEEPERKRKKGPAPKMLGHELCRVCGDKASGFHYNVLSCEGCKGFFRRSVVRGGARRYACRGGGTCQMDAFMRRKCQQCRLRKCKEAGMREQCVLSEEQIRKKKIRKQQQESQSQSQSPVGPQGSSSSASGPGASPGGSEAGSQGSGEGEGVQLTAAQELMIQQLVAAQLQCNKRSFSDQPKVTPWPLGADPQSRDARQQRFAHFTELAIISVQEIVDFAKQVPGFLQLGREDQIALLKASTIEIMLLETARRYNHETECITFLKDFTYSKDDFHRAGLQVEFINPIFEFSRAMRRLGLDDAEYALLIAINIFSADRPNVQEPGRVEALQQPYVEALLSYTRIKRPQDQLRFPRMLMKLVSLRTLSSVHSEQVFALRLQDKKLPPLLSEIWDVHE

[12] = biological target: Paired box protein Pax-8 (Homo sapiens, UniProt Q06710); test: inhibitors of PAX8-driven TPO luciferase reporter, dose response, RMG-I cells, cherry-pick (AID 687027); assay type: functional, cell-based;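 also: luciferase reporter driven by Pax8 target thyroperoxidase promoter measured by SteadyGlo luminescence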
Paired box protein Pax-8, sequence (Q06710 whole entry): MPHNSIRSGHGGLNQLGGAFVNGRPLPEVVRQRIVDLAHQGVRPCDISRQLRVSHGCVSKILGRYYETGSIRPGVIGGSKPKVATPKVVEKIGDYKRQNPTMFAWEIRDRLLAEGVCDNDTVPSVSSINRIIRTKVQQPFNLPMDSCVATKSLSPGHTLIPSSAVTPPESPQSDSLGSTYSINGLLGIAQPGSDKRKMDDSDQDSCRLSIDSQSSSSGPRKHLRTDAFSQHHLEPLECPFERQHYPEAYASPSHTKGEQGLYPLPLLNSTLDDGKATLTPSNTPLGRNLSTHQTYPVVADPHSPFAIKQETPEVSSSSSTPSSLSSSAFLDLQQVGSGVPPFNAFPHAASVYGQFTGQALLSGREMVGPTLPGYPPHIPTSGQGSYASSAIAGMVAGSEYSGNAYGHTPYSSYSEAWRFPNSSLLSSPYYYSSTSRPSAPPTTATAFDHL

[13] = A2780 ovarian cancer cell cytotoxicity, dose response, cytotoxicity control, plate reader, dry powder samples (AID 743046); assay type: functional, cell-based
[14] = NIH:OVCAR-3 ovarian cancer cell cytotoxicity, dose response, PAX8 inhibitor project, plate reader, dry powder samples (AID 743044); assay type: functional, cell-based
[15] = IGROV1 ovarian cancer cell cytotoxicity, dose response, PAX8 inhibitor project, plate reader, dry powder samples (AID 743043); assay type: functional, cell-based; settings: IGROV-1
[16] = non-specific cell cytotoxicity, dose response, cytotoxicity control for PAX8 inhibitor project, plate reader, dry powder samples (AID 743021); assay type: functional, cell-based
[17] = cytotoxicity in OVCAR8 ovarian cancer cells, dose response, PAX8 project, cell-based, plate reader, dry powder samples (AID 743197); assay type: functional; settings: OVCAR-8
[18] = biological target: Potassium channel subfamily K member 3 (Homo sapiens, UniProt O14649); test: TASK1 (KCNK3) potassium channel inhibitors, SAR follow-up, CHO cells, FluxOR thallium flux (AID 652212); assay type: functional
Potassium channel subfamily K member 3, sequence (O14649 whole entry): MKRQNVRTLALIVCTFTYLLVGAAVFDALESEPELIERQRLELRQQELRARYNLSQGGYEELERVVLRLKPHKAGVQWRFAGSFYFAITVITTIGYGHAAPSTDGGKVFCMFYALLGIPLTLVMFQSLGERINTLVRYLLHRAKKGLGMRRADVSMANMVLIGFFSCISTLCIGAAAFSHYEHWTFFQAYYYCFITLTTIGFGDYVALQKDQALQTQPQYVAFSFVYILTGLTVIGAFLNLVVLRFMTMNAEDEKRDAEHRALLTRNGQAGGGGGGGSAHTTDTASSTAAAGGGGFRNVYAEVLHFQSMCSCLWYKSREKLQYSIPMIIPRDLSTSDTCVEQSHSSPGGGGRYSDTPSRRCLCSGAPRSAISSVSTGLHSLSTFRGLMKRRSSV

[19] = MITF Orthogonal Assay: SK-MEL-5 CTG Assay Measured in Cell-Based System Using Plate Reader - 2084-02_Inhibitor_Dose_DryPowder_Activity_Set7.; assay type: functional
[20] = MITF: Counter assay: A375 proliferation Measured in Cell-Based System Using Plate Reader - 2084-03_Inhibitor_Dose_DryPowder_Activity_Set8.; assay type: functional; settings: A-375
[21] = TRPM1 promoter luciferase reporter signal decrease, dose response, MITF inhibitor project, cell-based, SK-MEL-5, dry powder, set 8 (AID 624430); assay type: functional
[22] = biological target: Endoplasmic reticulum aminopeptidase 1 (Homo sapiens, UniProt Q9NZ08); test: ERAP1 aminopeptidase inhibitors, dose response, biochemical, cherry-pick, set 2, plate reader (AID 743314)
Endoplasmic reticulum aminopeptidase 1, sequence (Q9NZ08 whole entry): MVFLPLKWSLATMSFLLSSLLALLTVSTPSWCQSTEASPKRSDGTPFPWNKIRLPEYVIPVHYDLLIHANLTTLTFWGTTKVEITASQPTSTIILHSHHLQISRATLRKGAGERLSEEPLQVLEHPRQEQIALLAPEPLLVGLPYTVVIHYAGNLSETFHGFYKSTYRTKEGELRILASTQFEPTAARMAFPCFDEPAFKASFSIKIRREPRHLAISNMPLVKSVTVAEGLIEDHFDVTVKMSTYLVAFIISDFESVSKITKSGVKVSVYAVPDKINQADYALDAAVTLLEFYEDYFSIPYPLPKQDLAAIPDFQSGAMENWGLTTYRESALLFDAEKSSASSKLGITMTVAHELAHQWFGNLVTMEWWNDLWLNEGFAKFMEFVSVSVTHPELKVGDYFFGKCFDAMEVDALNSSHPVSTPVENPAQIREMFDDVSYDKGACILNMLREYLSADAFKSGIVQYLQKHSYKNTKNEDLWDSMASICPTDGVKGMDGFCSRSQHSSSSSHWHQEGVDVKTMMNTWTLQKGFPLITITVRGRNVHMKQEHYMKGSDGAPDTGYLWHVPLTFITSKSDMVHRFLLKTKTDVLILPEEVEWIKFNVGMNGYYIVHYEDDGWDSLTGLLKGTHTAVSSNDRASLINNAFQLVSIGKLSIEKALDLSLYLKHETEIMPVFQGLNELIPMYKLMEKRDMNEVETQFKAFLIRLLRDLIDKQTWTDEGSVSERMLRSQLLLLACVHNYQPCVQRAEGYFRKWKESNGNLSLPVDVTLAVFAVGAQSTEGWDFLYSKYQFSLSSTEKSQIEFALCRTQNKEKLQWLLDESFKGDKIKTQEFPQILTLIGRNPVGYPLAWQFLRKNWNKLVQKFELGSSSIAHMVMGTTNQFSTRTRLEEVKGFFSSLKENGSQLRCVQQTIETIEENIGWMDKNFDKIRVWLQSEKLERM

[23] = PAX2 cell-based inhibition, dose response, selectivity assay for PAX8 inhibitor project, plate reader, dry powder samples (AID 743048); assay type: functional;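 also: HEK293 cells carrying a WT1 promoter luciferase reporter driven by expressed Pax2; potency is for inhibition of Pax2 driven reporter signal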
[24] = cytotoxicity in COV362 ovarian cancer cells, dose response, cytotoxicity control for PAX8 inhibitor project, cell-based, plate reader, dry powder, SA12 (AID 743144); assay type: functional
[25] = PAX5 activity inhibitors, dose response, selectivity assay for PAX8 inhibitor project, cell-based, plate reader, dry powder samples (AID 743047); assay type: functional;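 also: HEK293 cells carrying a Pax5 driven CD19 promoter luciferase reporter; potency of inhibitors that lower reporter luminescence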
[26] = cytotoxicity in COV434 cells, dose response, cytotoxicity control for PAX8 inhibitor project, cell-based, plate reader, dry powder, SA7 (AID 743145); assay type: functional
[27] = cytotoxicity in OV-90 ovarian cancer cells, dose response, PAX8 inhibitor project, cell-based, plate reader, dry powder, SA8 (AID 743149); assay type: functional
[28] = cytotoxicity dependent on PAX8, dose response, cell-based, plate reader, dry powder (AID 743049); assay type: functional
[29] = NIH-3T3 fibroblast cytotoxicity, dose response, cytotoxicity control, cell-based, fluorescence, Alamar Blue, secondary assay (AID 2327); assay type: functional;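 also: NIH-3T3 mouse fibroblasts cultured with fluconazole at 8 µg/mL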
[30] = C. albicans growth with fluconazole, confirmation, fluorescence, retest (AID 2467); assay type: functional, cell-based
[31] = biological target: Heat shock protein HSP 90-alpha (Homo sapiens, UniProt P07900); assay type: functional, organism-based
[32] = A549 cell cytotoxicity, dose response, cytotoxicity control, cherry-picks, 26 µM top dose (AID 1053119); assay type: functional, cell-based
[33] = Shn3 3'UTR reporter inhibitors, dose response, cell-based, Clone20 osteoblasts, firefly luciferase, cherry-picked (AID 624132); assay type: functional;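 also: firefly luciferase luminescence from reporter carrying the Shn3 3'UTR in osteoblasts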
[34] = HepG2 cell cytotoxicity, dose response, cytotoxicity control for Shn3 inhibitor project, CellTiter-Glo, cherry-picked (AID 624134); assay type: functional, cell-based
[35] = control 3'UTR Renilla luciferase suppression, dose response, counter-screen for Shn3 inhibitor project, cell-based, Clone20-Shn3RL, cherry-picked (AID 624133); assay type: functional
[36] = reduction of Shn3 3'UTR firefly luciferase signal, dose response, Schnurri-3 inhibitor project, cell-based, Clone20 osteoblasts, cherry-pick, set 2 (AID 720490); assay type: functional;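 also: actives lower the luminescence signal as inhibitors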

Fc1ccc(NC(S)=Nc2nccs2)cc1
EC50 [1]: 5.3 µM (active) | IC50 [2]: > 20 µM (inactive) | IC50 [3]: > 20 µM (inactive) | IC50 [4]: 6.34 µM (inactive) | EC50 [5]: 2.79 µM (active) | IC50 [6]: > 20 µM (inactive) | EC50 [7]: > 60 µM (inconclusive) | IC50 [8]: > 122 µM (inactive) | IC50 [9]: > 20 µM (inactive)

CCC(=O)Nc1cc2nn(-c3ccccc3)nc2cc1Cl
AC50 [10]: 5.02 µM (active)

COCCNc1nc(-c2cc3ccccc3o2)cs1
EC50 [11]: > 67.5 µM (inactive)

COc1ccc(S(=O)(=O)Nc2ccc3c(c2)C(=O)N([C@H](C)CO)C[C@H](C)[C@@H](CN(C)S(=O)(=O)c2ccc(Cl)cc2)OCCCC[C@H](C)O3)cc1
AC50 [12]: 7.7 µM (active) | AC50 [13]: 21.4 µM (active) | AC50 [14]: 16 µM (active) | AC50 [15]: 24.8 µM (active) | AC50 [16]: 51.9 µM (active) | AC50 [17]: > 70 µM (inactive)

CCOc1ccccc1NC(=O)c1cccc(NC(=O)c2ccc(OC)cc2)c1
IC50 [18]: 0.3 µM (active)

CN1CCN(C2=C(Nc3ccc(I)cc3)C(=O)c3ccccc3C2=O)CC1
AC50 [19]: 8.33 µM (active) | AC50 [20]: 26 µM (active) | AC50 [21]: 7.32 µM (active)

CCNC(=O)[C@@H]1[C@@H](CO)[C@@H]2Cn3c(ccc(/C=C/c4ccccc4)c3=O)[C@H]1N2C(=O)C1CCCC1
AC50 [22]: 9.24 µM (active)

N#C[C@H]1[C@H](c2ccc(C#CC3CCCC3)cc2)[C@@H](CO)N1C(=O)Nc1ccc(F)cc1
AC50 [12]: 5.59 µM (active) | AC50 [23]: 7.21 µM (active) | AC50 [24]: 32.1 µM (active) | AC50 [14]: 42.8 µM (active) | AC50 [25]: 7.84 µM (active) | AC50 [26]: 20.4 µM (active) | AC50 [27]: 29 µM (active) | AC50 [17]: 27.2 µM (active) | AC50 [28]: 19.1 µM (active)

Cc1ccc(O)c(-c2cc(-c3cccc(Br)c3)[nH]n2)c1
EC50 [29]: 16.3 µM (active) | EC50 [30]: 4.48 µM (active) | AC50 [31]: 3.01 µM (active) | AC50 [32]: 37.3 µM (active)

O=C(Nc1ccc(N2CCOCC2)cc1)c1ccc(Cl)c(S(=O)(=O)N2CCCC2)c1
AC50 [33]: 2.17 µM (active) | AC50 [34]: 69.4 µM (active) | AC50 [35]: 22.3 µM (active) | AC50 [36]: 2.65 µM (active)
